Measurements as given in ChEMBL document CHEMBL1201862, “PubChem BioAssay data set” (2004).
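Assay format: 96-well plates, 48-hour exposure. Here, GI50 denotes the concentration required for 50% inhibition of growth.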 Calls of active or inactive are those of the source. Rule as the data show it: active = GI50 up to about 1.1 µM and inactive = higher.

Assays:
Experiment in all cases: NCI-60 cell line screen, 48 h
A498 = system: A498
ACHN = system: ACHN
SK-OV-3 = system: SK-OV-3
HCT-116 = system: HCT-116
U-251 = system: U-251
CAKI-1 = system: CAKI-1
HOP-92 = system: HOP-92
HT-29 = system: HT-29
SK-MEL-28 = system: SK-MEL-28
LOX IMVI = system: LOX IMVI
UACC-62 = system: UACC-62
HOP-62 = system: HOP-62
SF-295 = system: SF-295
UACC-257 = system: UACC-257
M14 = system: M14
SF-539 = system: SF-539
RXF 393 = system: RXF 393
SK-MEL-2 = system: SK-MEL-2

Measured: GI50

COC(=O)C(Br)C1CCc2ccccc21 (centres undefined)
inactive: A498 > 100 µM | ACHN > 100 µM | SK-OV-3 > 100 µM | HCT-116 > 100 µM | U-251 > 100 µM | CAKI-1 > 100 µM | HOP-92 > 100 µM | HT-29 > 100 µM | SK-MEL-28 > 100 µM | LOX IMVI > 100 µM | UACC-62 > 100 µM | HOP-62 > 100 µM | SF-295 52.6 µM | UACC-257 > 100 µM | M14 > 100 µM

CC(=O)c1ccccc1NC(=O)C(=O)C(C(=O)c1ccccc1-c1ccccc1)C1OC(=O)c2ccccc21 (centres undefined)
inactive: A498 20.5 µM | ACHN 22.5 µM | SF-539 17.8 µM | SK-OV-3 31.8 µM | RXF 393 11.5 µM | HCT-116 17.8 µM | U-251 16 µM | CAKI-1 37.8 µM | HT-29 26.9 µM | LOX IMVI 18.7 µM | UACC-62 20.7 µM | HOP-62 20.1 µM | SK-MEL-2 17.2 µM | SF-295 22.2 µM | UACC-257 15.7 µM | M14 18.2 µM

N#CCC(=O)Nc1cccc(C(F)(F)F)c1
inactive: A498 > 100 µM | ACHN > 100 µM | SF-539 > 100 µM | SK-OV-3 > 100 µM | RXF 393 > 100 µM | HCT-116 > 100 µM | U-251 > 100 µM | CAKI-1 > 100 µM | HT-29 > 100 µM | SK-MEL-28 > 100 µM | LOX IMVI > 100 µM | UACC-62 > 100 µM | HOP-62 > 100 µM | SK-MEL-2 > 100 µM | SF-295 > 100 µM | UACC-257 > 100 µM | M14 > 100 µM

COC(=O)CC(NC(=O)OCc1ccccc1)C(C(=O)OCc1ccccc1)C(C)(OC)OC (centres undefined)
inactive: A498 3.95 µM | ACHN 26.4 µM | SF-539 29.2 µM | RXF 393 16.8 µM | HCT-116 34.3 µM | U-251 27 µM | HT-29 34.6 µM | SK-MEL-28 52.1 µM | LOX IMVI 16.6 µM | UACC-62 10.5 µM | HOP-62 44.9 µM | SK-MEL-2 17.6 µM | SF-295 24.6 µM | UACC-257 23.7 µM | M14 33.6 µM

COC(=O)C1CCc2nnc(-c3cccnc3)n21 (centres undefined)
inactive: A498 > 100 µM | ACHN > 100 µM | SF-539 > 100 µM | SK-OV-3 > 100 µM | RXF 393 > 100 µM | HCT-116 > 100 µM | U-251 > 100 µM | CAKI-1 > 100 µM | SK-MEL-28 > 100 µM | UACC-62 > 100 µM | HOP-62 > 100 µM | SK-MEL-2 > 100 µM | UACC-257 > 100 µM | M14 > 100 µM

CC(C)C1=CC(=O)C(C)(C2=NC(C)(C)CO2)c2ccccc21 (centres undefined)
inactive: ACHN > 100 µM | SF-539 > 100 µM | SK-OV-3 88.5 µM | RXF 393 > 100 µM | HCT-116 > 100 µM | U-251 > 100 µM | CAKI-1 > 100 µM | HOP-92 > 100 µM | HT-29 > 100 µM | SK-MEL-28 > 100 µM | UACC-62 > 100 µM | HOP-62 > 100 µM | SK-MEL-2 > 100 µM | SF-295 > 100 µM | UACC-257 63.8 µM | M14 > 100 µM

C#C[C@@H](CCCC)OC(=O)N[C@H](C)c1ccccc1
inactive: ACHN 43.8 µM | SF-539 2.16 µM | SK-OV-3 > 100 µM | RXF 393 2.36 µM | HCT-116 34.3 µM | U-251 37.4 µM | CAKI-1 42.9 µM | HOP-92 1.83 µM | HT-29 40.3 µM | SK-MEL-28 > 100 µM | LOX IMVI 33.2 µM | UACC-62 4.98 µM | HOP-62 > 100 µM | SK-MEL-2 23.4 µM | SF-295 77.1 µM | UACC-257 44.8 µM | M14 11.5 µM

CC/C=C\C/C=C\C1CC(=O)NCCCNCCCCN1 (centres undefined)
inactive: SF-539 > 100 µM | RXF 393 4.83 µM | HCT-116 > 100 µM | U-251 > 100 µM | CAKI-1 > 100 µM | HOP-92 > 100 µM | HT-29 > 100 µM | SK-MEL-28 > 100 µM | LOX IMVI > 100 µM | HOP-62 > 100 µM | SK-MEL-2 68.9 µM | SF-295 > 100 µM | UACC-257 > 100 µM | M14 48 µM

Cc1c(Cl)ccc2c1NC(=O)C2(O)C(C(=O)c1ccccc1)c1ccccc1 (centres undefined)
inactive: A498 24 µM | ACHN 72.4 µM | SF-539 74.6 µM | SK-OV-3 > 100 µM | RXF 393 27.5 µM | HCT-116 75.9 µM | U-251 34.8 µM | CAKI-1 58.3 µM | HT-29 29.9 µM | SK-MEL-28 94.6 µM | LOX IMVI 44.2 µM | UACC-62 19.5 µM | HOP-62 > 100 µM | SK-MEL-2 > 100 µM | SF-295 36.5 µM | UACC-257 28.7 µM | M14 > 100 µM

Cc1ccc(NC(=O)C(=O)Cc2cccc[n+]2[O-])cc1C
inactive: A498 > 100 µM | ACHN > 100 µM | SF-539 > 100 µM | SK-OV-3 > 100 µM | RXF 393 > 100 µM | HCT-116 > 100 µM | U-251 > 100 µM | CAKI-1 > 100 µM | HT-29 > 100 µM | SK-MEL-28 > 100 µM | LOX IMVI > 100 µM | UACC-62 > 100 µM | HOP-62 > 100 µM | SK-MEL-2 > 100 µM | SF-295 > 100 µM | UACC-257 > 100 µM | M14 > 100 µM

Brc1ccc(C[P+]2(c3ccccc3)CCCCC2)cc1.[O-][Cl+3]([O-])([O-])[O-]
inactive: A498 > 100 µM | ACHN > 100 µM | SF-539 82.4 µM | SK-OV-3 > 100 µM | RXF 393 > 100 µM | HCT-116 68.7 µM | U-251 29.6 µM | HT-29 38.8 µM | SK-MEL-28 63.7 µM | LOX IMVI 63.2 µM | UACC-62 41.1 µM | HOP-62 > 100 µM | SK-MEL-2 33.7 µM | SF-295 > 100 µM | UACC-257 23.9 µM | M14 65.9 µM

CC(=O)NNc1nc(C)c(C(=O)/C=C/c2ccc(/C=C/C(=O)c3sc(NNC(C)=O)nc3C)cc2)s1
inactive: ACHN > 100 µM | SF-539 > 100 µM | SK-OV-3 > 100 µM | RXF 393 > 100 µM | HCT-116 > 100 µM | U-251 > 100 µM | CAKI-1 > 100 µM | HT-29 > 100 µM | SK-MEL-28 > 100 µM | LOX IMVI > 100 µM | UACC-62 > 100 µM | HOP-62 > 100 µM | SK-MEL-2 > 100 µM | SF-295 > 100 µM | UACC-257 > 100 µM | M14 43.2 µM

CC(=O)Nc1ccc(S(=O)(=O)N/N=C(\C)CN2C(=O)c3ccccc3C2=O)cc1
inactive: A498 > 100 µM | ACHN > 100 µM | SF-539 > 100 µM | SK-OV-3 > 100 µM | HCT-116 > 100 µM | U-251 > 100 µM | CAKI-1 > 100 µM | HT-29 > 100 µM | UACC-62 > 100 µM | HOP-62 > 100 µM | SK-MEL-2 > 100 µM | SF-295 > 100 µM | UACC-257 > 100 µM | M14 > 100 µM
